# Structures can show the parent of a compound that is named as a salt.
# What was measured:
# HCT-116 cells = assay: Membrane integrity by LDH assay; type: cell-based, human; settings: 48 hours, 0.1% Triton X-100 = 100%
# Description: (§1) Membrane integrity was assessed using the LDH based in vitro toxicology kit obtained from Sigma-Aldrich. The assay was conducted following the manufacturer's protocol. HCT-116 and HT-29 cells were cultured in a 96-well plate at a density of 10,000 cells per well. After 24 hours of seeding, the cells were treated with IS at concentrations of 1.25 mM, 5 mM, and 10 mM. Following a 48-hour treatment period, the cells were centrifuged, and 100 μl of supernatant was collected into a fresh 96-well plate to measure the amount of LDH released into the media by necrotic cells. Subsequently, 100 μl of the dosing reagent was added and incubated for 30 minutes at 37° C. After incubation, 20 μl of […] stop solution was added. Absorbance was measured at 690 nm and 490 nm using a ClarioStar plate reader (BMG Labtech, Ortenberg, Germany). The background absorbance at 690 nm was subtracted from the 490 nm absorbance. For the positive control, 0.1% Triton X-100 was used and considered as maximum LDH release. Untreated cells served as the negative control. The membrane integrity of IS-exposed cells was compared to that of untreated cells. The following formula was used to calculate the LDH release from the cells: Experimental LDH release (OD490)×100/maximum LDH release (OD490).
# HT-29 cells = assay: Membrane integrity by LDH assay; type: cell-based, human; settings: 48 hours, 0.1% Triton X-100 = 100%
# Description: as §1
smiles,measurement,setting,value
"O=S(=O)(O)Oc1c[nH]c2ccccc12 [IS, Indoxyl Sulfate]",LDH release in the supernatant,"HCT-116 cells; HCT-116, 5 mM",80%
same,LDH release in the supernatant,"HCT-116 cells; HCT-116, 10 mM",86%
same,LDH release in the supernatant,"HT-29 cells; HT-29, 5 mM",82%
same,LDH release in the supernatant,"HT-29 cells; HT-29, 10 mM",85%

# Reference: US20250195468A1, “METHODS AND COMPOSITIONS FOR TREATING COLORECTAL CANCER WITH INDOXYL SULFATE” (National Institute of Immunology, priority 2023, published 2025)
